The results in this text go back to US10780101B2, “Amide derivatives of squalamine for the treatment of infections” (VIRBAC, priority 2016, dated 2020).

In brackets after ≈: the same amount, converted by molar mass. Read-outs that look alike come from different tables or passages of the source.

The test system of test [1] is S. intermedius Animal (1051997). Nature of the test: MIC determination, S. intermedius animal (1051997). It is filed as cell-based. The conditions noted are these: Staphylococcus intermedius; Gram-positive; Mueller-Hinton medium, 24 h at 37° C. A digest of the protocol:
(§1)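 Broth microdilution in Mueller-Hinton medium; compounds from 5 mg/mL stock in DMSO/methanol (50/50), twofold serial dilutions, inoculum adjusted to OD 0.01. Plates incubated 24 h at 37 °C, humid atmosphere; OD read at 620 nm to derive MIC, duplicates.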

The subject of the next test is C. albicans. Nature of the test: Antifungal activity, cascade microdilution. It is filed as cell-based. Particulars: Candida albicans, 24 h, read-out: IC50 (μg/mL) C. albicans.
In the next test the test system is CHO-K1 cells. The experiment in a line: WST1 cytotoxicity test on CHO-K1 cells. Format: cell-based, Chinese hamster. The conditions noted are these: Cricetulus griseus. The gist of the method:
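CHO-K1 cells pre-grown 24 h, then exposed to increasing compound concentrations in duplicate for 24 h at 37° C, 5% CO2. Viability read after 20 min with 10% WST-1 in PBS at 450 nm; IC50 from nonlinear regression as concentration cutting viability 50%.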

The test system of test [2] is S. aureus Human ATCC 25923. The experiment in a line: MIC determination, S. aureus human ATCC 25923. Format: cell-based. Particulars: Staphylococcus aureus, ATCC25923; Gram-positive; Mueller-Hinton medium, 24 h at 37° C. A digest of the protocol: as §1
The next test concerns E. coli Animal (1956). Nature of the test: MIC determination, E. coli animal (1956). It is filed as cell-based. The conditions noted are these: Escherichia coli; Gram-negative; Mueller-Hinton medium, 24 h at 37° C. The gist of the method: as §1
For the next test, the system named is E. coli Human ATCC 28922. Nature of the test: MIC determination, E. coli human ATCC 28922. It is filed as cell-based. The conditions noted are these: Escherichia coli, ATCC28922; Gram-negative; Mueller-Hinton medium, 24 h at 37° C. A digest of the protocol: as §1
Test [3] has as its system P. aeruginosa Animal (1051575). Nature of the test: MIC determination, P. aeruginosa animal (1051575). Format: cell-based. Particulars: Pseudomonas aeruginosa; Gram-negative; Mueller-Hinton medium, 24 h at 37° C. A digest of the protocol: as §1
The test system of test [4] is E. faecalis Human ATCC 29212. Nature of the test: MIC determination, E. faecalis human ATCC 29212. It is filed as cell-based. Particulars: Enterococcus faecalis, ATCC29212; Gram-positive; Mueller-Hinton medium, 24 h at 37° C. The gist of the method: as §1
Another test concerns P. aeruginosa (1051575). Nature of the test: Potentiation of doxycycline activity (combination MIC). It is filed as cell-based, Pseudomonas aeruginosa. Particulars: in presence of doxycycline 2 μg/mL; 24 hours at 37° C.
The subject of test [5] is P. aeruginosa Human ATCC 27853. Nature of the test: MIC determination, P. aeruginosa human ATCC 27853. Format: cell-based. Particulars: Pseudomonas aeruginosa, ATCC27853; Gram-negative; Mueller-Hinton medium, 24 h at 37° C. The gist of the method: as §1
In a further test the test system is S. aureus Animal (340). Nature of the test: MIC determination, S. aureus animal (340). It is filed as cell-based. Particulars: Staphylococcus aureus; Gram-positive; Mueller-Hinton medium, 24 h at 37° C. The gist of the method: as §1
Setting [6] is: CHO-K1, 24 h, read-out: IC50 (μg/mL) CHO.
Setting [7] is: CHO-K1, read-out: IC50 (μg/mL) CHO.

In the case of `CC(C)NC(=O)CC[C@@H](C)[C@H]1CCC2C3C(C[C@H](O)[C@@]21C)[C@@]1(C)CC[C@H](NCCCNCCCNCCCN)CC1C[C@H]3O` (stereo partly drawn) [(4), 3β-norspermino-N-isopropylcholamide], the MIC was 4 µg/mL (≈ 6.45 µM) in test [1]; 8 µg/mL (≈ 12.9 µM) in [2]; 32 µg/mL (≈ 51.6 µM) with E. coli Animal (1956); 16 µg/mL (≈ 25.8 µM) with E. coli Human ATCC 28922; 32 µg/mL (≈ 51.6 µM) in test [3]; 32 µg/mL (≈ 51.6 µM) in test [4]. Moreover, the MIC in test [5] was determined as 64 µg/mL (≈ 103 µM); against S. aureus Animal (340), 16 µg/mL (≈ 25.8 µM). Moreover, the IC50 with C. albicans stood at 8 µg/mL (≈ 12.9 µM); in the test with CHO-K1 cells (setting [6]), 65 µg/mL (≈ 105 µM); in the test on CHO-K1 cells (setting [7]), 170 µg/mL (≈ 274 µM). Further, the “MIC - P. aeruginosa (1051575): content of compound of formula (I) to restore the doxycycline activity (at 2 μg/mL)” value (shortened to “MIC - P. aeruginosa (1051575): content”) in the test on P. aeruginosa (1051575) is 1 µg/mL.
Regarding `CNC(=O)CC[C@@H](C)[C@H]1CCC2C3C(CC[C@@]21C)[C@@]1(C)CC[C@H](NCCCNCCCN)CC1C[C@H]3O` (stereo partly drawn) [(11), 3β-norspermidino-N-methylchenodeoxycholamide], the MIC was 1 µg/mL (≈ 1.93 µM) in test [1]; 6 µg/mL (≈ 11.6 µM) in test [2]; 13 µg/mL (≈ 25.1 µM) in the test with E. coli Animal (1956); 13 µg/mL (≈ 25.1 µM) with E. coli Human ATCC 28922; 6 µg/mL (≈ 11.6 µM) in [3]; 13 µg/mL (≈ 25.1 µM) in test [4]. Moreover, the MIC in [5] worked out at 12 µg/mL (≈ 23.1 µM); in the test with S. aureus Animal (340), 3 µg/mL (≈ 5.78 µM). The IC50 in the test with C. albicans was determined as 3 µg/mL (≈ 5.78 µM); in the test on CHO-K1 cells (setting [6]), 20 µg/mL (≈ 38.5 µM); in the test with CHO-K1 cells (setting [7]) it was 20 µg/mL (≈ 38.5 µM). In the test with P. aeruginosa (1051575), the “MIC - P. aeruginosa (1051575): content” value came out at 2 µg/mL.
As for `CC(C)NC(=O)CC[C@@H](C)[C@H]1CCC2C3CCC4C[C@@H](NCCCN5CCN(CCCN)CC5)CC[C@]4(C)C3CC[C@@]21C` (stereo partly drawn) [(19), 3β-(1,4-bis(3-aminopropyl)piperazine)-N-isopropyllithocholamide], the minimum inhibitory concentration (MIC) in test [1] was found to be 4 µg/mL (≈ 6.67 µM); in test [2], 8 µg/mL (≈ 13.3 µM); with E. coli Animal (1956), 30 µg/mL (≈ 50 µM); with E. coli Human ATCC 28922, 30 µg/mL (≈ 50 µM); in test [3], 30 µg/mL (≈ 50 µM); in [4] it was 15 µg/mL (≈ 25 µM). Besides, the MIC in [5] is 120 µg/mL (≈ 200 µM); against S. aureus Animal (340), 4 µg/mL (≈ 6.67 µM). Also, the values for the IC50 in the test with C. albicans, in the test with CHO-K1 cells (setting [6]) and in the test with CHO-K1 cells (setting [7]) were 4 µg/mL (≈ 6.67 µM), 12 µg/mL (≈ 20 µM) and 12 µg/mL (≈ 20 µM), respectively. In addition, the “MIC - P. aeruginosa (1051575): content” value in the test on P. aeruginosa (1051575) was 8 µg/mL.
`CC(C)N(C(=O)CC[C@@H](C)[C@H]1CCC2C3C(CC[C@@]21C)[C@@]1(C)CC[C@H](NCCCNCCCNCCCN)CC1C[C@H]3O)C(C)C` (stereo partly drawn) [(40), 3β-norspermino-N,N-diisopropylchenodeoxycholamide]: the MIC was determined as 2 µg/mL (≈ 3.1 µM) in test [1]; 4 µg/mL (≈ 6.19 µM) in test [2]; 8 µg/mL (≈ 12.4 µM) against E. coli Animal (1956); 32 µg/mL (≈ 49.5 µM) against E. coli Human ATCC 28922; 8 µg/mL (≈ 12.4 µM) in [3]; 2 µg/mL (≈ 3.1 µM) in test [4]. The figures for the MIC (in [5]; against S. aureus Animal (340)) were 8 µg/mL (≈ 12.4 µM) and 2 µg/mL (≈ 3.1 µM), respectively. Besides, in the test on C. albicans, the IC50 stood at 1 µg/mL (≈ 1.55 µM). Moreover, the “MIC - P. aeruginosa (1051575): content” value in the test with P. aeruginosa (1051575) is 2 µg/mL.
With `CC(C)NC(=O)CC[C@@H](C)[C@H]1CCC2C3C(CC[C@@]21C)[C@@]1(C)CC[C@H](NCCCN(CCCN)CCCN)CC1C[C@H]3O` (stereo partly drawn) [(46), 3β-(tris(3-aminopropyl)amine)-N-isopropylchenodeoxycholamide], the MIC in test [1] was 2 µg/mL (≈ 3.31 µM); in test [2], 8 µg/mL (≈ 13.2 µM); against E. coli Animal (1956) it was 30 µg/mL (≈ 49.7 µM); in the test with E. coli Human ATCC 28922, above 120 µg/mL; in test [3], 120 µg/mL (≈ 199 µM); in test [4], 30 µg/mL (≈ 49.7 µM). The minimum inhibitory concentration (MIC) in test [5] is 60 µg/mL (≈ 99.3 µM); with S. aureus Animal (340) it was 2 µg/mL (≈ 3.31 µM). Besides, the IC50 in the test with C. albicans stood at 1 µg/mL (≈ 1.66 µM); in the test with CHO-K1 cells (setting [6]) it was 50 µg/mL (≈ 82.8 µM); in the test on CHO-K1 cells (setting [7]), 50 µg/mL (≈ 82.8 µM). Moreover, the “MIC - P. aeruginosa (1051575): content” value in the test with P. aeruginosa (1051575) worked out at 2 µg/mL.
